According to PMC3366831 (The Journal of Biological Chemistry, 2012):

Legend:
PAPSS2 = target: T1, PAPSS2 (Homo sapiens, UniProt O95340); test: thermal unfolding by CD at […] nm; format: binding; details: about 0.5 μM protein, pH 7.3, 1 mM MgCl2, 25 °C/h
T1 sequence (O95340 1-614): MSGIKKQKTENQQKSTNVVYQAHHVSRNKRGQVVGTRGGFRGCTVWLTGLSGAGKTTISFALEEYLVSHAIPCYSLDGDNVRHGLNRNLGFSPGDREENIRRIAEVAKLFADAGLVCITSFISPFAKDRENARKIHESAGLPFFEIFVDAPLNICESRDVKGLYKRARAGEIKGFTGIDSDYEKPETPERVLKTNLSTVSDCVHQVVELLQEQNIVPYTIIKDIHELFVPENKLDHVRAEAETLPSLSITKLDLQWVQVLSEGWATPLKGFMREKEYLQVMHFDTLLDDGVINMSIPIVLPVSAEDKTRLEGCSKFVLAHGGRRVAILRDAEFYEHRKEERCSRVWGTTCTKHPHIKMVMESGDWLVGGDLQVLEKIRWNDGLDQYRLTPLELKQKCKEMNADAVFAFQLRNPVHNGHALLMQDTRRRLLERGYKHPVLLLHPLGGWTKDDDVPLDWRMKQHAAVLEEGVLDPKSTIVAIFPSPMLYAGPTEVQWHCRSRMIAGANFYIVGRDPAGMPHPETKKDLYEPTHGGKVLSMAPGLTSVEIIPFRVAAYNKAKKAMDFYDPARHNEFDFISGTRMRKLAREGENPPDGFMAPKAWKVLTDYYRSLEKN

PAPSS1 = target: T2, PAPSS1 (Homo sapiens, UniProt O43252); test: thermal unfolding by CD at […] nm; format: binding; details: about 0.5 μM protein, pH 7.3, 1 mM MgCl2, 25 °C/h
T2 sequence (O43252 1-624): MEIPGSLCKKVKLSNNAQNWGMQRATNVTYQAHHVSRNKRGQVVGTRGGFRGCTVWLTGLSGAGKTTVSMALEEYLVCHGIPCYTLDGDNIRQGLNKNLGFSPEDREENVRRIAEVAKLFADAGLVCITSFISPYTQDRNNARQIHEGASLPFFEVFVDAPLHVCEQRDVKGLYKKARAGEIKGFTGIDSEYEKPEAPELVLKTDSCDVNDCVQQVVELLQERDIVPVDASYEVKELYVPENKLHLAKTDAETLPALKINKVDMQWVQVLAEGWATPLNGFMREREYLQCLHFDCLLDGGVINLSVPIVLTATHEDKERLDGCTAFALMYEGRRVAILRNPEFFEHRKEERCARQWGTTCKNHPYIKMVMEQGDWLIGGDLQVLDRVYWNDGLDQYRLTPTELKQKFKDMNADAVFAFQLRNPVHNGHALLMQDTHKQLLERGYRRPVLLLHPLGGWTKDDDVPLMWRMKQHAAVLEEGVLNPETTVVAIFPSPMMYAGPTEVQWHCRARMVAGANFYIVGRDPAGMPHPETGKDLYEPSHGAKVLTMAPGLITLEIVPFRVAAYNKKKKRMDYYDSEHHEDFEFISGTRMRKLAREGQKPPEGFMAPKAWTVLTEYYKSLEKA

In the case of `Nc1ncnc2c1ncn2[C@@H]1O[C@H](COP(=O)(O)OP(=O)(O)O)[C@@H](O)[C@H]1O` [ADP], the “thermal unfolding by CD at 225 nm” value (PAPSS2; 100 μM ADP) is reported as “moderate effects on PAPSS1 and -S2 stability were observed for ADP and PAPS” and the “thermal unfolding by CD at 225 nm” value (PAPSS1; 100 μM ADP) is reported as “moderate effects on PAPSS1 and -S2 stability were observed for ADP and PAPS”.
For `Nc1ncnc2c1ncn2[C@@H]1O[C@H](COP(=O)(O)OP(=O)(O)OP(=O)(O)O)[C@@H](O)[C@H]1O` [ATP], the “thermal unfolding by CD at 225 nm” value (PAPSS2; 100 μM ATP) was “ATP had a slight stabilizing effect on PAPSS2”.
In the case of `Nc1ncnc2c1ncn2[C@@H]1O[C@H](COP(=O)(O)OS(=O)(=O)O)[C@@H](OP(=O)(O)O)[C@H]1O` [PAPS], the “thermal unfolding by CD at 225 nm” value (PAPSS2; 50 μM PAPS) is reported as “moderate effects on PAPSS1 and -S2 stability were observed for ADP and PAPS” and the “thermal unfolding by CD at 225 nm” value (PAPSS1; 50 μM PAPS) is reported as “moderate effects on PAPSS1 and -S2 stability were observed for ADP and PAPS”.
